pIC50: −log10 of the molar value.
Test system: NCI-H1876 tumor spheroid viability
Assay: Anticancer human tumor NCI-H1876 cell line growth inhibition;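 note: spheroids exposed to compounds for seven days before the viability read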;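 for viability, T/C: percent of DMSO vehicle control viability so 100% = vehicle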
Conditions: spheroids with HUVEC and MSC; for pIC50: curve of first compound; for viability, T/C: stronger effect = lower value
Outline: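 Complex spheroids of malignant cells with endothelial cells and mesenchymal stem cells; agents alone or combined, from near clinical Cmax (or 10 microM if unknown) down in half-log steps, 0.25% DMSO final.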

[1] = second compound 0.003 µM, first compound 0.0316 µM
[2] = second compound 0.003 µM, first compound 0.1 µM
[3] = second compound 0.003 µM, first compound 0.316 µM
[4] = second compound 0.003 µM, first compound 1 µM
[5] = second compound 0.003 µM, first compound 3.16 µM
[6] = second compound 0.003 µM, first compound 10 µM
[7] = second compound 0.00949 µM, first compound 0.0316 µM
[8] = second compound 0.00949 µM, first compound 0.1 µM
[9] = second compound 0.00949 µM, first compound 0.316 µM
[10] = second compound 0.00949 µM, first compound 1 µM
[11] = second compound 0.00949 µM, first compound 3.16 µM
[12] = second compound 0.00949 µM, first compound 10 µM
[13] = second compound 0.03 µM, first compound 0.0316 µM
[14] = second compound 0.03 µM, first compound 0.1 µM
[15] = second compound 0.03 µM, first compound 0.316 µM
[16] = second compound 0.03 µM, first compound 1 µM
[17] = second compound 0.03 µM, first compound 3.16 µM
[18] = second compound 0.03 µM, first compound 10 µM
[19] = second compound 0.0949 µM, first compound 0.0316 µM
[20] = second compound 0.0949 µM, first compound 0.1 µM
[21] = second compound 0.0949 µM, first compound 0.316 µM
[22] = second compound 0.0949 µM, first compound 1 µM
[23] = second compound 0.0949 µM, first compound 3.16 µM
[24] = second compound 0.0949 µM, first compound 10 µM
[25] = second compound 0.3 µM, first compound 0.0316 µM
[26] = second compound 0.3 µM, first compound 0.1 µM
[27] = second compound 0.3 µM, first compound 0.316 µM
[28] = second compound 0.3 µM, first compound 1 µM
[29] = second compound 0.3 µM, first compound 3.16 µM
[30] = second compound 0.3 µM, first compound 10 µM

SMILES	pIC50 (second compound 0.003 µM)	pIC50 (second compound 0.00949 µM)	pIC50 (second compound 0.03 µM)	pIC50 (second compound 0.0949 µM)	pIC50 (second compound 0.3 µM)	viability, T/C [1]	viability, T/C [2]	viability, T/C [3]	viability, T/C [4]	viability, T/C [5]	viability, T/C [6]	viability, T/C [7]	viability, T/C [8]	viability, T/C [9]	viability, T/C [10]	viability, T/C [11]	viability, T/C [12]	viability, T/C [13]	viability, T/C [14]	viability, T/C [15]	further results
CC(C)n1c(=O)n(C)c2cnc3cc(F)c(-c4ccc(OCCCN5CCCCC5)nc4)cc3c21 + CC[C@@]1(O)C(=O)OCc2c1cc1n(c2=O)Cc2cc3c(CN(C)C)c(O)ccc3nc2-1	> 7.50	> 7.50	> 7.50	> 7.50	> 7.50	25.1%	25.5%	34.6%	45.5%	44.1%	28.1%	5.02%	4.95%	5.93%	7.51%	10.2%	11.6%	2.64%	2.9%	2.81%	viability, T/C [16]: 3.34%; viability, T/C [17]: 3.91%; viability, T/C [18]: 4.32%; viability, T/C [19]: 2.03%; viability, T/C [20]: 2.07%; viability, T/C [21]: 2.33%; viability, T/C [22]: 2.86%; viability, T/C [23]: 2.99%; viability, T/C [24]: 3.42%; viability, T/C [25]: 1.97%; viability, T/C [26]: 2.19%; viability, T/C [27]: 1.74%; viability, T/C [28]: 2.16%; viability, T/C [29]: 2.86%; viability, T/C [30]: 2.71%
CC1COCCN1c1cc(-c2ccnn2C)c2ccnc(-c3ccn[nH]3)c2n1 (stereo not given) + CC[C@@]1(O)C(=O)OCc2c1cc1n(c2=O)Cc2cc3c(CN(C)C)c(O)ccc3nc2-1	> 7.50	> 7.50	> 7.50	> 7.50	> 7.50	16.2%	9.61%	6.33%	5.32%	2.8%	3.12%	6.81%	5.86%	5.29%	3.16%	2.62%	4.77%	3.3%	3.5%	3.31%	viability, T/C [16]: 2.97%; viability, T/C [17]: 2.42%; viability, T/C [18]: 2.82%; viability, T/C [19]: 2.58%; viability, T/C [20]: 2.23%; viability, T/C [21]: 2.26%; viability, T/C [22]: 2.14%; viability, T/C [23]: 2.41%; viability, T/C [24]: 2.01%; viability, T/C [25]: 2.18%; viability, T/C [26]: 2.1%; viability, T/C [27]: 2.02%; viability, T/C [28]: 2.7%; viability, T/C [29]: 1.91%; viability, T/C [30]: 1.92%
COc1cc(C)[nH]c(=O)c1CN1CCc2c(Cl)cc(C(OC)C3COC3)c(Cl)c2C1=O (stereo not given) + CC[C@@]1(O)C(=O)OCc2c1cc1n(c2=O)Cc2cc3c(CN(C)C)c(O)ccc3nc2-1	< 5.00	> 7.50	> 7.50	> 7.50	> 7.50	92.3%	88.3%	82.6%	79.3%	80.6%	73.7%	32.3%	19.7%	19.2%	19.4%	17.3%	18.6%	3.49%	3.03%	3.24%	viability, T/C [16]: 2.91%; viability, T/C [17]: 3.73%; viability, T/C [18]: 3.6%; viability, T/C [19]: 2.58%; viability, T/C [20]: 2.48%; viability, T/C [21]: 2.58%; viability, T/C [22]: 2.45%; viability, T/C [23]: 2.45%; viability, T/C [24]: 3.12%; viability, T/C [25]: 2.06%; viability, T/C [26]: 2.39%; viability, T/C [27]: 2.29%; viability, T/C [28]: 1.79%; viability, T/C [29]: 2.16%; viability, T/C [30]: 2.06%
COc1ccc([C@@H](O)c2cc(-c3ncnc4cc(N5CCOCC5)ccc34)c(F)cc2Cl)nn1 + CC[C@@]1(O)C(=O)OCc2c1cc1n(c2=O)Cc2cc3c(CN(C)C)c(O)ccc3nc2-1	5.78	> 7.50	> 7.50	> 7.50	> 7.50	88.7%	83.7%	85.3%	67.1%	27.6%	10.9%	15.9%	15.2%	17.8%	12.2%	8.75%	5.67%	3.61%	6.14%	3.33%	viability, T/C [16]: 3.01%; viability, T/C [17]: 2.56%; viability, T/C [18]: 2.82%; viability, T/C [19]: 2.02%; viability, T/C [20]: 2.62%; viability, T/C [21]: 2.15%; viability, T/C [22]: 2.18%; viability, T/C [23]: 1.69%; viability, T/C [24]: 2.92%; viability, T/C [25]: 1.88%; viability, T/C [26]: 1.98%; viability, T/C [27]: 1.62%; viability, T/C [28]: 1.27%; viability, T/C [29]: 1.46%; viability, T/C [30]: 1.93%
Cc1cc(C)c(CNC(=O)c2cc(-c3ccc(CN4CCOCC4)cc3)cc3c2cnn3C2CCCC2)c(=O)[nH]1 + CC[C@@]1(O)C(=O)OCc2c1cc1n(c2=O)Cc2cc3c(CN(C)C)c(O)ccc3nc2-1	6.29	> 7.50	> 7.50	> 7.50	> 7.50	78.6%	70%	56.6%	39%	27.7%	10.5%	40.9%	39.6%	35.1%	26.2%	22%	10.5%	15.6%	15.2%	17.6%	viability, T/C [16]: 17.8%; viability, T/C [17]: 16.5%; viability, T/C [18]: 9.6%; viability, T/C [19]: 8.57%; viability, T/C [20]: 9.17%; viability, T/C [21]: 10.2%; viability, T/C [22]: 12.2%; viability, T/C [23]: 12%; viability, T/C [24]: 11.9%; viability, T/C [25]: 3.79%; viability, T/C [26]: 4.57%; viability, T/C [27]: 4.59%; viability, T/C [28]: 6.24%; viability, T/C [29]: 7.93%; viability, T/C [30]: 7.45%
[2H]c1nc(C)nc([2H])c1-c1cc(NC[C@@H](C)c2cccc3c(C(=O)NC)ccnc23)ncn1 + CC[C@@]1(O)C(=O)OCc2c1cc1n(c2=O)Cc2cc3c(CN(C)C)c(O)ccc3nc2-1	< 5.00	> 7.50	> 7.50	> 7.50	> 7.50	93.3%	89.6%	93.9%	87.1%	85.1%	78.5%	25.2%	22.2%	24%	21.4%	19.7%	17.1%	3.65%	4.05%	3.87%	viability, T/C [16]: 4.16%; viability, T/C [17]: 4.24%; viability, T/C [18]: 4.06%; viability, T/C [19]: 2.96%; viability, T/C [20]: 2.98%; viability, T/C [21]: 2.95%; viability, T/C [22]: 3.01%; viability, T/C [23]: 2.71%; viability, T/C [24]: 3.38%; viability, T/C [25]: 2.42%; viability, T/C [26]: 2.48%; viability, T/C [27]: 2.48%; viability, T/C [28]: 2.74%; viability, T/C [29]: 2.32%; viability, T/C [30]: 2.21%

Reference: PubChem BioAssay AID1845207 (Molecular Pharmacology Branch, DTP, NCI, 2023)
